Results: PubChem BioAssay (NCI)
Where “and” joins values, the source holds several entries; their conditions need not be identical. Equal values may be shown once.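 In this assay, cells in 96-well plates receive the compound at five concentrations for 48 hours. Endpoints are linearly interpolated between the surrounding concentrations. GI50 marks 50% less growth. The concentration for full growth arrest is given as TGI.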

How the values were obtained:
Assay in all cases: DTP human tumour cell line panel, 48 h
LXFL 529 NSCLC = system: LXFL 529 NSCLC
M19-MEL melanoma = system: M19-MEL melanoma
RXF-631 renal = system: RXF-631 renal
SNB-78 CNS = system: SNB-78 CNS
KM20L2 colon = system: KM20L2 colon
BT-549 breast = system: BT-549 breast
MDA-MB-435 = system: MDA-MB-435
MDA-N = system: MDA-N
XF 498 CNS = system: XF 498 CNS

SMILES | TGI (LXFL 529 NSCLC) | TGI (M19-MEL melanoma) | TGI (RXF-631 renal) | TGI (SNB-78 CNS) | TGI (KM20L2 colon) | GI50 (BT-549 breast) | TGI (BT-549 breast) | GI50 (MDA-MB-435) | TGI (MDA-MB-435) | TGI (MDA-N) | TGI (XF 498 CNS)
COc1cc(C(=O)C/C(CCC(=O)Nc2ccccc2[N+](=O)[O-])=N\NC(=O)C(N)=O)ccc1O | > 100 µM | > 100 µM | > 100 µM | > 100 µM | > 100 µM |  |  |  |  |  | 
CS(=O)(=O)CCNCc1ccc(-c2ccc3ncnc(Nc4ccc(OCc5ccccc5)c(C(F)(F)F)c4)c3c2)o1 |  |  |  |  |  | 8.99 µM | > 25 µM | 4.8 µM | 10.5 µM |  | 
C[C@H](c1ccc(Cl)cc1N)N1C(=O)c2cc(I)ccc2N(CCCN2CCN(C)CC2)C(=O)[C@@H]1c1ccc(Cl)cc1 |  |  |  |  |  |  |  | 1.81 µM | 3.57 µM |  | 
CCCCCCCCCCCCCCCCC1=CC(=O)C=C(OC)C1=O |  |  |  |  |  |  |  |  | > 100 µM | > 100 µM | 
CC(=O)CC(=O)N(CCN(C(=O)CC(C)=O)c1ccccc1)c1ccccc1 | > 100 µM | > 100 µM |  | > 100 µM | > 100 µM |  |  |  |  |  | > 100 µM
O=C(O)C(=O)Cc1ccc2c(c1)OCO2 |  |  |  |  |  |  | > 100 µM |  | > 100 µM | > 100 µM | 
CC(C)C1C(=O)N2CCCC2C2(O)OC(NC(=O)C3C=C4c5cccc6[nH]cc(c56)CC4N(C)C3)(C(C)C)C(=O)N12 (configuration not stated) |  |  |  |  |  |  | 88.6 µM |  | > 100 µM | 67.5 µM | 
CCCCCCCCCOC(=S)NC | 34.8 µM | 53.9 µM | 49.5 µM |  | 32.5 µM |  |  |  |  |  | 35.3 µM
COc1ccc(-c2coc3ncnc(N)c23)cc1 |  |  |  |  |  | > 25 µM | > 25 µM | > 25 µM | > 25 µM |  | 
CCC1CCc2nc3sc(C(=O)Nc4ccccc4F)c(N)c3cc2C1 (configuration not stated) |  |  |  |  |  | > 100 µM | > 100 µM | 0.133 µM | 0.562 µM |  | 
NC1=NC(=O)N2CC12 (configuration not stated) | > 100 µM |  |  |  | > 100 µM | 47.9 µM and 62.6 µM | 166 µM | 90.9 µM and 78 µM | 194 µM |  | > 100 µM
C#C[C@@]1(O)[C@@H](CO)O[C@@H](n2cc(Cl)c3c(N)ncnc32)[C@@H]1O |  |  |  |  |  |  |  | 0.166 µM | 2.4 µM |  | 
O=c1oc2ccc(Cl)cc2c(=O)n1-c1ccc(Cl)cc1F |  |  |  |  |  | 0.483 µM | 2.44 µM | 0.572 µM | 4.86 µM |  | 
CCOC(=O)[C@H](CSSc1ncnc2cc[nH]c12)NC(=O)[C@@H](C)c1ccc2cc(OC)ccc2c1 |  |  |  |  |  | 0.916 µM | > 100 µM | 0.355 µM | > 100 µM |  | 
O=c1[nH]cnc2c(C3OC(CO)C(O)C3O)[nH]nc12 (configuration not stated) |  |  |  |  |  |  | > 100 µM |  | > 100 µM | > 100 µM | 
COc1cc2c(c(OC)c1OC)-c1ccc([O-])c(=O)cc1[C@@H](NC(C)=O)CC2.COc1cc2c(c(OC)c1OC)-c1ccc([O-])c(=O)cc1[C@@H](NC(C)=O)CC2.[Cu+2] |  |  |  |  |  | 2.56 µM | > 100 µM |  |  |  | 
Oc1c(Br)cc(Br)cc1CN(Cc1cc(Br)cc(Br)c1O)C1CCCCC1 |  |  |  |  |  |  | 90.9 µM |  | > 100 µM | > 100 µM | 

SMILES | TGI (LXFL 529 NSCLC) | TGI (M19-MEL melanoma) | TGI (RXF-631 renal) | TGI (SNB-78 CNS) | TGI (KM20L2 colon) | GI50 (BT-549 breast) | TGI (BT-549 breast) | GI50 (MDA-MB-435) | TGI (MDA-MB-435) | TGI (MDA-N) | TGI (XF 498 CNS)
Cc1cc(NC(=O)c2ccc(NS(=O)(=O)CCO)cc2N2CCC3(CC2)CC3)nc(N2CCC(F)(F)CC2)n1 |  |  |  |  |  | 0.486 µM | 17.9 µM | 0.903 µM | 18.5 µM |  | 
N=c1ccn2c(n1)OC1C(OP(=O)(O)O)C(CO)OC12 (configuration not stated) |  |  |  |  |  |  | > 100 µM |  | > 100 µM | > 100 µM | 
CS(=O)(=O)c1ccc(N/N=C/c2c(-c3ccc(S(C)(=O)=O)cc3)[nH]c3ccc(F)cc23)cc1 |  |  |  |  |  | 1.44 µM | > 50 µM | 3.12 µM | > 50 µM |  | 
COc1cc(N2CCC(N3CCN(C)CC3)CC2)ccc1Nc1ncc(Cl)c(Nc2ccccc2P(C)(C)=O)n1 |  |  |  |  |  | 3.07 µM | 13.5 µM | 2.94 µM | > 100 µM |  | 
COc1ccc(-c2cc(-c3ccc(Nc4nc(Nc5ccc(Cl)cc5)nc(Nc5ccc(Cl)cc5)n4)cc3)no2)cc1 |  |  |  |  |  | 17.2 µM | 72 µM | 10.3 µM | 37 µM |  | 
CC[C@H](C)c1occ2c(O)c(C(=O)O)c(=O)cc-2c1C |  |  |  |  |  |  | 64.6 µM |  | 58 µM | > 100 µM | 
C/C(=N\O)c1sc(-n2nc(-c3ccccc3)cc2-c2ccccc2)nc1C | 16.3 µM | 20.8 µM | > 31.6 µM | > 100 µM | 16.1 µM |  |  |  |  |  | 
O=S(=O)(NCCNc1cc(-c2cn(-c3ccccc3)nc2-c2cccc(O)c2)ccn1)c1ccc(C(F)(F)F)cc1 |  |  |  |  |  | 2.02 µM | 7.07 µM | 2.4 µM | 7.63 µM |  | 
O=C1C=C(Nc2ccccc2)c2ncccc2C1=O |  |  |  |  |  | 1.28 µM | 2.64 µM | 0.178 µM | 0.323 µM |  | 
CCc1ccccc1NC(=O)/C(CC(=O)c1c(C)n([O-])c2ccccc2[n+]1=O)=N\NS(=O)(=O)c1ccc(C)cc1 | > 100 µM | 46.7 µM | > 100 µM | > 100 µM | > 100 µM |  |  |  |  |  | 
CCN(Cc1ccc(F)cc1)c1ccc(CO)c(Cl)c1 |  |  |  |  |  | 9.27 µM | 29.7 µM | 19.9 µM | 73.2 µM |  | 
COC1=CC(=O)c2ccc(C(C)C)cc2C1(C)C1=NC(C)(C)CO1 (configuration not stated) | > 100 µM | > 100 µM |  |  | > 100 µM |  |  |  |  |  | > 100 µM
O=C(OC(C(=O)O)C(OC(=O)c1ccccc1)C(=O)O)c1ccccc1 (configuration not stated) (tested in a mixture with another compound) |  | > 100 µM |  | > 100 µM | > 100 µM and 88.7 µM |  | 27 µM |  | 62.7 µM | 43 µM | 
CC(=O)[O-].CC(=O)[O-].[Mn+2].c1ccc(/C(=N\Nc2ccccn2)c2ccccn2)cc1 | 17.2 µM | 14.3 µM |  |  | 15.8 µM |  | 14.4 µM |  | 18.7 µM | 22.5 µM | 
COc1ccc(OC)c(/C=C/c2nnc(Nc3ccc(Cl)cc3)o2)c1 |  |  |  |  |  |  |  | 37 µM | > 100 µM |  | 
CCCCCCN(CCCCCC)C(=N)c1ccnc2ccccc12 |  |  |  |  |  | 13.9 µM | 27.3 µM | 3.21 µM | 14.7 µM |  | 
Nc1ncc(-c2cnn(C3CCNCC3)c2)cc1-c1nc2ccccc2o1 |  |  |  |  |  | 2.44 µM | 10.2 µM | 1.21 µM | 2.62 µM |  | 
